Source: patent publication US9827190B2, “Intradermal delivery of immunological compositions comprising toll-like receptor 7 agonists” (GLAXOSMITHKLINE BIOLOGICALS SA, priority 2013, dated 2017)

Tested on: X181 H1N1 Cal, X187 H3N2 Perth and B/Brisbane
Assay type: in vivo, Balb/c mice
Settings: adjuvant dose 100 μg, 20 μl

Cc1ccc2c(c1)nc(N)c1ncc(CCc3ccc(OCCOCCOCCC(F)(F)P(=O)(O)O)cc3C)cc12 [T1b]
immune response compared to both intradermal or intramuscular immunization using antigen alone: significantly improved immune response
